The first test addresses T1, USP28 (His-tagged USP28-FL-mammalian) (Homo sapiens, UniProt Q96RU2).
T1 construct: Expression of USP28 (1-1077)-TEV-6*His (pTT5 vector); made in house; host or cells: Expi293f cells (pTT5 vector)
T1 sequence (Q96RU2 1-1077): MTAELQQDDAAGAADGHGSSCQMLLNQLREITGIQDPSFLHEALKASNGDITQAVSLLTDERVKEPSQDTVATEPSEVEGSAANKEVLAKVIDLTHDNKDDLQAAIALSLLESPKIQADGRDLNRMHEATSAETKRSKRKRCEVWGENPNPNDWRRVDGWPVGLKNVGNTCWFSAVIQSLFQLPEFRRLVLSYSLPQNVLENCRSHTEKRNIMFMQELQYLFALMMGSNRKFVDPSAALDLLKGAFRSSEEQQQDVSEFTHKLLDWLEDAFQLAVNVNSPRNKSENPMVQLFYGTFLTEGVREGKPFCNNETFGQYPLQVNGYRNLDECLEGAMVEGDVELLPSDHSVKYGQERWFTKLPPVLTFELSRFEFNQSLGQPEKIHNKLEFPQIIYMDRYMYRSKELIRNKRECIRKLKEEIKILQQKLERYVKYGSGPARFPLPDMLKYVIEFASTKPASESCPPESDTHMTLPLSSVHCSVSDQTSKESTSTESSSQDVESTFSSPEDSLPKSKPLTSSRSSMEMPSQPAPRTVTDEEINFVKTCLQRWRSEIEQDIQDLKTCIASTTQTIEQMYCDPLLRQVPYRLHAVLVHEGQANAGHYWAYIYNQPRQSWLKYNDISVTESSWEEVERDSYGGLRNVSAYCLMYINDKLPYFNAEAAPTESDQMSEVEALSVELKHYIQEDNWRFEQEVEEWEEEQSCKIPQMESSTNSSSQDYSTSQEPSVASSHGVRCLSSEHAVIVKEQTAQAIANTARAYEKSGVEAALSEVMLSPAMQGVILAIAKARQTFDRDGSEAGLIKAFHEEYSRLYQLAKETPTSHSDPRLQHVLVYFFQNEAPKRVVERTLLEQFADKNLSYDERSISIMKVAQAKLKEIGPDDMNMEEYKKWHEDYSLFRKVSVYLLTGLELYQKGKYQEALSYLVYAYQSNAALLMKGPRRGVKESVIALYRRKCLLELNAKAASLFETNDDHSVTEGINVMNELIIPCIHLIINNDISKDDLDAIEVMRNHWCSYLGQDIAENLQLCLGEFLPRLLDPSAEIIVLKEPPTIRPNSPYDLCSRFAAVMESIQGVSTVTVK
The test can be described thus: Ubiquitin-Rhodamine 110 Assay for USP28 Activity, Example A-1(a). In kind it is biochemical. The note with it: Ub-Rh110 assay, Example A-1(a); read-out: USP28 A-1(a) IC50 range. In outline: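 Full-length His-tagged USP28 (1-1077, Expi293F-expressed; […]) was preincubated 30 min with compound (25 μM–1.3 nM, 10-point 3-fold) in 20 mM Tris-HCl pH 8.0, 3 mM BME, 0.03% BGG, 0.01% Triton X-100. Ub-Rh110 (25 nM) was then added for 45 min at room temperature, stopped with citric acid, and read by fluorescence (485/535 nm).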
For `Cc1cc(C(F)(F)F)c2c(N)c(C(=O)N[C@H]3COc4cc(N5CC6CC(C5)N6)ccc4C3)sc2n1` [Example 2-21], the IC50 was in the range of 1 to 50 nM.

For the compound `Cc1nc2sc(C(=O)N[C@H]3COc4cc(N5CC6CC(C5)N6)ccc4C3)c(N)c2cc1F` [Example 2-15, N-((3R)-7-(3,6-diazabicyclo[3.1.1]heptan-3-yl)chroman-3-yl)-3-amino-5-fluoro-6-methylthieno[2,3-b]pyridine-2-carboxamide], the IC50 is 1 to 50 nM.

Consider `Cc1ccc2c(N)c(C(=O)N[C@@H]3COc4cc(N5CC6CC(C5)N6)ccc4C3)sc2n1` [Example 2-3, N-((3S)-7-(3,6-diazabicyclo[3.1.1]heptan-3-yl)chroman-3-yl)-3-amino-6-methylthieno[2,3-b]pyridine-2-carboxamide], for which the IC50 fell in the range of 200 to 2000 nM.

In the case of `Cc1ccc2c(N)c(C(=O)N[C@H]3COc4cc(N5CC6CCC(C5)N6)ccc4C3)sc2n1` (single isomer, unassigned) [Example 1-3], the IC50 lay in the range of 1 to 50 nM.

As to `Cc1ccc2c(N)c(C(=O)N[C@H]3COc4cc(N5CC6CC(C5)N6)ccc4C3)sc2n1` [Example 2-2, N-((3R)-7-(3,6-diazabicyclo[3.1.1]heptan-3-yl)chroman-3-yl)-3-amino-6-methylthieno[2,3-b]pyridine-2-carboxamide], the IC50 lay in the range of 1 to 50 nM.

Consider `Cc1ccc2c(N)c(C(=O)N[C@H]3COc4cc(N5CCNC[C@H]5C)ccc4C3)sc2n1` [Example 2-5, 3-amino-6-methyl-N-((R)-7-((R)-2-methylpiperazin-1-yl)chroman-3-yl)thieno[2,3-b]pyridine-2-carboxamide], for which the IC50 was in the range of 1 to 50 nM.

`Cc1ccc2c(N)c(C(=O)N[C@H]3COc4cc(N5CC6CC(C5)N6)cc(F)c4C3)sc2n1` (single isomer, unassigned) [Example 1-42]: the half-maximal inhibitory concentration (IC50) lay in the range of 200 to 2000 nM.

As for `Cc1ccc2c(N)c(C(=O)N[C@H]3COc4cc(N5CC6CNCC(C5)C6(F)F)c(C#N)cc4C3)sc2n1` [Example 2-33, 3-amino-N-((3R)-6-cyano-7-(9,9-difluoro-3,7-diazabicyclo[3.3.1]nonan-3-yl)chroman-3-yl)-6-methylthieno[2,3-b]pyridine-2-carboxamide], the IC50 is 1 to 50 nM.

Take `Cc1nc2sc(C(=O)N[C@H]3COc4cc(N5CCNCC5)ccc4C3)c(N)c2cc1F` (single isomer, unassigned) [Example 1-15]: the IC50 fell in the range of 1 to 50 nM.

Turning to `Cc1ccc2c(N)c(C(=O)N[C@@H]3COc4cc(N5CCN[C@@H](C)[C@@H]5C)ccc4C3)sc2n1` (single isomer, unassigned) [Example 1-14], the IC50 was in the range of 50 to 200 nM.

Turning to `Cc1ccc2c(N)c(C(=O)N[C@H]3COc4cc(N5CCN[C@H](C)C5)ccc4C3)sc2n1` [Example 2-9, 3-amino-6-methyl-N-((R)-7-((R)-3-methylpiperazin-1-yl)chroman-3-yl)thieno[2,3-b]pyridine-2-carboxamide], the IC50 is 1 to 50 nM.

For the compound `CCn1ccc2cc(C(=O)N[C@H]3COc4cc(N5CC6CCCC(C5)N6)ccc4C3)nnc21` [Example 2-29, N-((3R)-7-(3,9-diazabicyclo[3.3.1]nonan-3-yl)chroman-3-yl)-7-ethyl-7H-pyrrolo[2,3-c]pyridazine-3-carboxamide], the IC50 is 50 to 200 nM.

Regarding `Cc1cnc2c(N)c(C(=O)N[C@@H]3CCc4c(ccc(N5CCNCC5)c4C)C3)sc2n1` (single isomer, unassigned) [Example 2-37], the IC50 lay in the range of 1 to 50 nM.

For the compound `Cc1nc2sc(C(=O)N[C@H]3COc4cc(N5CC6CC(C5)N6)ccc4C3)c(N)c2s1` [Example 2-26, N-((3R)-7-(3,6-diazabicyclo[3.1.1]heptan-3-yl)chroman-3-yl)-6-amino-2-methylthieno[2,3-d]thiazole-5-carboxamide], the IC50 is 50 to 200 nM.

With `CCn1ccc2cc(C(=O)N[C@H]3COc4cc(N5CC6CCC(C5)N6)ccc4C3)cnc21` (single isomer, unassigned) [Example 1-28], the IC50 was 1 to 50 nM.

In the case of `Cc1nc2sc(C(=O)N[C@H]3COc4cc(N5CC6CCC(C5)N6)ccc4C3)c(N)c2s1` [Example 1-23, N-((3R)-7-(3,8-diazabicyclo[3.2.1]octan-3-yl)chroman-3-yl)-6-amino-2-methylthieno[2,3-d]thiazole-5-carboxamide], the IC50 lay in the range of 1 to 50 nM.

As to `Cc1ccc2c(N)c(C(=O)N[C@H]3COc4cc(N5CC6CCCC(C5)N6)ccc4C3)sc2n1` (single isomer, unassigned) [Example 1-5], the IC50 lay in the range of 1 to 50 nM.

For `CO[C@@H]1CN(c2ccc3c(c2)OC[C@H](NC(=O)c2sc4nc(C)ccc4c2N)C3)C[C@H]1N` (single isomer, unassigned) [Example 3-2], the IC50 is 1 to 50 nM.

Turning to `Cc1cnc2c(N)c(C(=O)N[C@H]3COc4cc(N5CCNCC5)ccc4C3)sc2n1` (single isomer, unassigned) [Example 1-21], the IC50 fell in the range of 1 to 50 nM.

As for `CCn1ccc2cc(C(=O)N[C@H]3COc4cc(N5CC6CNCC(C5)C6(F)F)ccc4C3)cnc21` [Example 2-30, N-((3R)-7-(9,9-difluoro-3,7-diazabicyclo[3.3.1]nonan-3-yl)chroman-3-yl)-1-ethyl-1H-pyrrolo[2,3-b]pyridine-5-carboxamide], the IC50 fell in the range of 1 to 50 nM.

Take `Cc1ccc2c(N)c(C(=O)N[C@@H]3COc4cc(N5CCNCC5)c(OC(F)(F)F)cc4C3)sc2n1` (single isomer, unassigned) [Example 1-32]: the IC50 fell in the range of 50 to 200 nM.

With `Cc1cnc2c(N)c(C(=O)N[C@@H]3COc4cc(N5CCNCC5)ccc4C3)sc2n1` (single isomer, unassigned) [Example 1-22], the IC50 fell in the range of 200 to 2000 nM.

The same test, now with this note: Ubiquitin-Rhodamine 110 assay, Example A-1(a); read-out: USP28 A-1(a) IC50 range.
For the compound `Cc1cnc2c(N)c(C(=O)N[C@H]3CCc4nc(N5CCNCC5)ccc4C3)sc2n1` [Example 23-6, 7-amino-3-methyl-N-[(6S)-2-(piperazin-1-yl)-5,6,7,8-tetrahydroquinolin-6-yl]thieno[2,3-b]pyrazine-6-carboxamide], the IC50 was in the range of 50 to 200 nM.

For orientation: IC50 means the concentration that inhibits the measured activity by half.

Values taken from US11524966B1 (Valo Early Discovery, Inc., priority 2017, dated 2022).
